We go through seven compounds from patent US20250188058A1, “NEW FORMS OF N-(5-((6,7-DIMETHOXYQUINOLIN-4-YL)OXY)PYRIDIN-2-YL)-1-PROPYL-4-(2,2,2-TRIFLUOROETHOXY)-1H-PYRAZOLE-3-CARBOXAMIDE HYDROCHLORIDE” (QURIENT CO., LTD., priority 2022, published 2025).

Series [1] in a line: Dynamic Vapour Sorption (DVS) hygroscopicity. The conditions noted are these: for total weight gain between 40-80% RH: DVS isothermal plot, 25° C. Type of series: physicochemical. How it is done: Dynamic Vapour Sorption (DVS) was performed using a Hiden Analytical Instruments IGAsorp Vapour Sorption Balance. Approximately 30 mg of sample was placed into a wire-mesh vapour sorption balance pan, loaded into the IGAsorp vapour sorption balance and held at 25° C.±0.1° C. The sample was subjected to a step profile from o to 90% RH at 10% increments, followed by desorption from 90% RH to 0% RH at 10% increments. The equilibrium criterion was set to 99.0% step completion within a minimum of 60 minutes and a maximum of 5 hours for each increment. The weight change during the sorption cycle was monitored, allowing for the hygroscopic nature of the sample to be determined. The data collection interval was in seconds.

Series [2] can be described thus: Stress at 40° C./75% relative humidity for 15 days. Type of series: physicochemical. The conditions noted are these: 40° C./75% RH. How it is done:
HCl form C was stressed at 40° C./75% relative humidity for 15 days.
Form A was stressed at 40° C./75% for 15 days. […] Solvent was not detected.

Series [3] can be described thus: Humidity stress using crystalline material (HCl form C). Type of series: physicochemical. The conditions noted are these: 8 days. How it is done:
Approximately 25 mg of […] […] HCl form C material and were stressed for 8 days. All samples remained as […] HCl form C material.

Series [4] is described as follows: Aqueous solubility of crystalline salts of Q702 (slurried overnight in deionised water, HPLC). The conditions noted are these: crystalline salts slurried overnight in deionised water (pH = 6.8); for pH of solution: solution pH measured.
Procedure: (§1) Solubility was measured by a) solubility estimation by aliquot addition and b) HPLC: • a) Solubility estimation by aliquot-addition
(§2) Samples were held at ambient temperature for 18 hours to maximize the chance of precipitation. Any recoverable solids were analyzed by XRPD.
(§3) The HPLC method used to determine equilibrium solubility in a variety of solvents is outlined. […] A phenomenex Kinetex column was used with a particle size of 2.6 μm.
Series [5] in a line: Long term stability of Form A of Q702 HCl salt. Type of series: physicochemical. How it is done: Form A of […] HCl salt was tested for long term stability to 24 months.
Series [6] is described as follows: Pharmacokinetic study in plasma after oral administration. Type of series: in vivo, male SD rats. To be noted: 30 mg/kg; for AUC(0-t) / Cmax / Tmax / half-life: vehicle water. How it is done:
In this example, pharmacokinetic studies are performed using the form A of the HCl-salt of Q702 and the free base (FB) thereof in plasma, following oral administration of such form A and free base to male SD rats.
Appropriate amounts of the form A of Q702 HCl or of free base were accurately weighed and mixed with appropriate volume of vehicle (water) to get a clear solution or uniform suspension. Male SD rats were dosed with a nominal dose of 30 mg/kg body weight. After dosing, 0.2 mL blood was collected per time point at time points o h, 0.083 h, 0.25 h, 0.5 h, 1 h, 2 h, 4 h, 8 h, 12 h, and 24 h. For such blood collection, blood was collected from the jugular vein or other suitable site of each animal into pre-chilled plastic microcentrifuged tubes containing 5 μL of 1000 IU heparin Na as anti-coagulant. Blood samples were processed for plasma by centrifugation at approximately 4° C., 3200 g for ten minutes. Plasma was collected and transferred into pre-labelled polypropylene tubes, snap-frozen over dry ice and kept at −60° C. or lower until LC-MS/MS-analysis was performed. LC-MS/MS methodology was performed using a calibration curve with at least 6 non-zero calibration standards.
Plasma concentrations versus time were plotted and analysed by non-compartmental approaches using the Phoenix WinNonlin 6.3 software program. Related pharmacokinetic parameters were calculated according to dosing route, e. g.

Series [7] in a line: Solubility estimation by aliquot addition in solvents. Type of series: physicochemical. To be noted: organic solvent or mixture, thermodynamic from solid. How it is done:
The aliquot volumes were typically 100-1000 μL. Complete dissolution of the test material was determined by visual inspection. The solubility was estimated from these experiments based on the total solvent used to provide complete dissolution. […] From the infrared (IR) transmission data of the sample vials, dissolution and precipitation events were recorded as the point of complete transmission of IR and the onset of turbidity by IR respectively. […] Any recoverable solids were analyzed by XRPD. […] HCl salt was estimated in 9 solvent systems using the aliquot addition method.

The nature of another series: physchem. To be noted: pH 6.8, water, thermodynamic from solid.
Series [8] can be described thus: Humidity stress using amorphous material. To be noted: 6 days. Type of series: physicochemical. From the text:
X-ray amorphous material generated from freeze drying was exposed to various controlled humidity conditions for 6 days before analysis by XRPD. Both samples remained as amorphous material.

A short description of series [9]: Thermal stressing of amorphous Q702 HCl salt. To be noted: 50° C., 7 days, under nitrogen in a sealed vial. Type of series: physicochemical.

Some results are limits rather than exact numbers.

Procedure for physchem: as §1, §2, §3

As to `CCCn1cc(OCC(F)(F)F)c(C(=O)Nc2ccc(Oc3ccnc4cc(OC)c(OC)cc34)cn2)n1.Cl` [HCl form C], in [1], the “total weight gain between 40-80% RH” value is listed as 0.7 % w/w. In addition, the “XRPD analysis of post DVS sample” value in [1] (after DVS analysis) is “no physical change in the sample was detected”. Also, the “hygroscopicity, European Pharmacopoeia classification” value in [1] (based on DVS weight gain 40-80% RH) is reported as “slightly hygroscopic”. The XRPD after stress result in [2] was “remained as HCl salt form C”. Besides, the “% Weight change” value in series [3] (40° C./75% RH stress) is listed as −1.96%; in series [3] (75% RH stress), −11.05%; in series [3] (98% RH stress), “+2.99%”; in series [3] (98% RH stress, listed as Q702 HCl form C), 2.99%. Further, the weight loss in [3] (40° C./75% RH) amounted to 1.96%; in series [3] (75% RH stress), 11.05%.
`O=C(O)CCC(=O)C(=O)O` [Ketoglutarate]: the pH of solution in series [4] worked out at 2.91.
`CCCn1cc(OCC(F)(F)F)c(C(=O)Nc2ccc(Oc3ccnc4cc(OC)c(OC)cc34)cn2)n1.Cl` [Q702 HCl form A, N-(5-((6,7-dimethoxyquinolin-4-yl)oxy)pyridin-2-yl)-1-propyl-4-(2,2,2-trifluoroethoxy)-1H-pyrazole-3-carboxamide hydrochloride]: in [5] (25 ± 2° C./60 ± 5% RH, 12 M), the Assay came out at 94.0%, the Purity was 100.0% and the XRPD entry was “Consistent”. Moreover, in series [5] (25 ± 2° C./60 ± 5% RH, 24 M), the Assay is 94.6%, the Purity is given as 99.9% and the XRPD entry is reported as “Consistent”. Also, in series [5] (40 ± 2° C./75 ± 5% RH, 6 M), the Assay came out at 94.8%, the Purity was found to be 99.9% and the XRPD entry is “Consistent”. Also, in series [5] (Initial), the Assay is on record as 95.9%, the Purity was 99.9% and the XRPD entry is “Consistent”. In addition, the “long term stability (XRPD results)” value in [5] (tested to 24 months) is recorded as “stable to 24 months”. In addition, the “plasma exposure level higher than that of the free base (mean AUC-values)” value in [6] (versus Q702 free base) turned out to be 33%. For the same compound, in series [6] (male, SD, rat, plasma), the AUC(0-t) was found to be 430 µg·h/mL, the peak level (Cmax) was 37000 ng/mL, the Tmax stood at 2.83 h and the half-life was 10.3 h. Further, the bioavailability in series [6] (male, SD, rat, plasma, test = form A of HCl-salt, ref = free base of Q702, read-out: relative bioavailability) worked out at 144%. Besides, the “total weight gain between 40-80% RH” value in [1] (hydrochloride) turned out to be 0.5 % w/w. Also, in series [2] (hydrochloride), the XRPD after stress result is reported as “remained as form A”.
With `CCCn1cc(OCC(F)(F)F)c(C(=O)Nc2ccc(Oc3ccnc4cc(OC)c(OC)cc34)cn2)n1.Cl` [Q702 HCl salt, N-(5-((6,7-dimethoxyquinolin-4-yl)oxy)pyridin-2-yl)-1-propyl-4-(2,2,2-trifluoroethoxy)-1H-pyrazole-3-carboxamide hydrochloride], the solubility in series [7] (Acetone, 20° C., read-out: Solubility Range) was under 20 mg/mL; in [7] (Acetonitrile, 20° C., read-out: Solubility Range), under 20 mg/mL; in [7] (Dichloromethane, 20° C., read-out: Solubility Range), 66 to 100 mg/mL; in [7] (Dimethyl sulfoxide, 20° C., read-out: Solubility Range), over 201 mg/mL; in series [7] (Ethanol, 20° C., read-out: Solubility Range) it was 67 to 101 mg/mL; in series [7] (Ethyl acetate, 20° C., read-out: Solubility Range) it was under 20 mg/mL. The solubility in [7] (Methanol, 20° C., read-out: Solubility Range) is 49 to 66 mg/mL; in series [7] (Methyl tert-butyl ether, 20° C., read-out: Solubility Range), under 20 mg/mL; in series [7] (Tetrahydrofuran, 20° C., read-out: Solubility Range), under 20 mg/mL; in series [7] (in four of the 9 solvents at ambient temperature, read-out: solubility), over 20 mg/mL; in “physchem” it was 1.95 mg/mL.
In the case of `CCCn1cc(OCC(F)(F)F)c(C(=O)Nc2ccc(Oc3ccnc4cc(OC)c(OC)cc34)cn2)n1` [Q702 free base, N-(5-((6,7-dimethoxyquinolin-4-yl)oxy)pyridin-2-yl)-1-propyl-4-(2,2,2-trifluoroethoxy)-1H-pyrazole-3-carboxamide], in [6] (male, SD, rat, plasma), the AUC(0-t) worked out at 323 µg·h/mL, the highest level (Cmax) was 33800 ng/mL, the Tmax turned out to be 3.33 h and the half-life is 10.9 h.
Regarding `CCCn1cc(OCC(F)(F)F)c(C(=O)Nc2ccc(Oc3ccnc4cc(OC)c(OC)cc34)cn2)n1.Cl` [amorphous Q702 HCl salt], the “XRPD after humidity stress” value in [8] (40° C./75% RH stress) and in [8] (59% RH stress) was “amorphous” throughout. The results for the “XRPD after thermal stress” value in [9] (listed as Amorphous Q702 HCl salt) and in series [9] (listed as amorphous) were “remained amorphous” and “amorphous”, respectively.
On to Tosylate, for which, in series [4], the “Aq Solub” value is reported as 0.026 mg/mL and the pH of solution was determined as 4.26.

One may read the AUC(0-t) as the area under the concentration-time curve up to a stated or last time point. Usually Cmax stands for the peak of the concentration-time curve. What is called Tmax is the time at which the peak concentration occurs. A word on the half-life: it is the time in which the quantity being followed falls by half. The solubility is the concentration that dissolves in the medium under given conditions.
